Assay results reported in patent US20150126534A1, “ENZYME AND RECEPTOR MODULATION” (Chroma Therapeutics Ltd, priority 2005, published 2015).
pIC50: −log10 of the molar value. Structures can show the parent of a compound that is named as a salt. Where two headings read alike, the source gives them in different places. Each block holds one molecule with its values, some of them ahead of it.

Legend:
[1] = test system: HCT116 (non-monocytic cell line); test: Cell proliferation inhibition assay (WST-1), HCT116; assay type: cell-based; conditions: for IC50: Homo sapiens; for Ratio IC50 cell/enzyme: HCT116 cell proliferation IC50 / DHFR enzyme IC50
Experimental: (§1) Following 24 h of growth cells were treated with compound. Plates were then re-incubated for a further 72-96 h before a WST-1 cell viability assay was conducted according to the suppliers (Roche Applied Science) instructions.
(§2) Data were expressed as a percentage inhibition of the control, measured in the absence of inhibitor, as follows: —
(§3) where S^i is the signal in the presence of inhibitor and S^o is the signal in the presence of DMSO.
(§4) Dose response curves were generated from 8 concentrations (top final concentration 10 μM, with 3-fold dilutions), using 6 replicates.

[2] = test system: U937 cells (monocytic cell line); test: Cell proliferation inhibition assay (WST-1), U937; assay type: cell-based; conditions: for IC50: Homo sapiens
Experimental: as §1, §2, §3, §4

[3] = test system: TNFα production in human whole blood; test: LPS-stimulation of human whole blood, TNF-α ELISA; assay type: cell-based; conditions: for pIC50: LPS 100 ng/ml, read-out: Inhibition of TNFα production in human whole blood IC50; for Ratio IC50 WB/enzyme: whole blood TNFα IC50 / P38 MAP kinase IC50
Experimental: Whole blood was taken by venous puncture using heparinised vacutainers (Becton Dickinson) and diluted in an equal volume of RPMI1640 tissue culture media. 100 μl was plated in V-bottomed 96 well tissue culture plates. Inhibitor was added in 100 μl of RPMI1640 media, and 2 h later the blood was stimulated with LPS (E coli strain 005:B5, Sigma) at a final concentration of 100 ng/ml and incubated at 37° C. in 5% CO2 for 6 h. TNF-α levels were measured from cell-free supernatants by sandwich ELISA (R&D Systems #QTA00B).

p38 MAP kinase α = target: T1, p38 MAP kinase α (Homo sapiens, UniProt Q16539); test: P38 MAP kinase α inhibitory activity assay; assay type: biochemical; conditions: ATP 90 μM; read-out: Enzyme inhibition IC50 nM (P38 MAP kinase)
T1 construct: full length human enzyme expressed in E coli as an N-terminally GST-tagged protein; GST (N); purchased Upstate (Dundee UK), assay run by the vendor; host or cells: E. coli
Experimental: The ability of compounds to inhibit p38 MAP kinase α (full length human enzyme expressed in E coli as an N-terminally GST-tagged protein) activity was measured in an assay performed by Upstate (Dundee UK). […] The reaction was initiated by the addition of the MgATP mix. After incubation for 40 minutes at room temperature, the reaction was stopped by the addition of 5 μl of a 3% phosphoric acid solution. 10 μl of the reaction was then spotted onto a P30 filtermat and washed three times for 5 minutes in 75 mM phosphoric acid and once in methanol, prior to drying and scintillation counting.
Dose response curves were generated from a ½ log dilution series of a stock inhibitor solution in DMSO. Nine dilutions steps were made from a top, final concentration of 10 μM, and a ‘no compound’ blank was included. Samples were run in duplicate. Data from scintillation counts were collected and subjected to free-fit analysis by Graphpad Prism software. From the curve generated, the concentration giving 50% inhibition was determined.

PI 3-kinase γ = target: T2, PI 3-kinase γ (Homo sapiens, UniProt P48736); test: PI 3-kinase γ inhibition assay (HTRF); assay type: biochemical; conditions: 100 μM MgATP; read-out: Enzyme inhibition IC50 nM (PI3-Kinase)
T2 construct: recombinant N-terminally His6-tagged, full length human enzyme; His6 (N); purchased Upstate (Dundee, UK), assay run by the vendor; host or cells: baculovirus / Sf21 insect cells
Description: The measurement of PI 3-kinase γ activity is dependent upon the specific and high affinity binding of the GRP1 pleckstrin homology (PH) domain to PIP3, the product of PI 3-kinase activity. A complex is formed between europium-labelled anti-GST monoclonal antibody, a GST-tagged GRP1 PH domain, biotinylated PIP3 and streptavidin-allophycocyanin (APC). This complex generates a stable time-resolved fluorescence resonance energy transfer (FRET) signal, which is diminished by competition of PIP3, generated in the PI 3-kinase assay, with the biotinylated PIPS.
The reaction was initiated by the addition of the MgATP mix. After incubation for 30 minutes at room temperature, the reaction was stopped by the addition of 5 μl of stop solution containing EDTA and biotinylated phosphatidylinositol-3,4,5-trisphosphate. Finally, 5 μl of detection buffer was added, which contained europium-labelled anti-GST monoclonal antibody, GST-tagged GRP1 PH domain and streptavidin-APC. The plate was then read in time-resolved fluorescence mode and the homogenous time-resolved fluorescence (HTRF) signal was determined according to the formula HTRF=10000×(Em665 nm/Em620 nm).
Duplicate data points were generated from a ½ log dilution series of a stock solution of compound in DMSO. Nine dilutions steps were made from a top final concentration of 10 μM, and a ‘no compound’ blank was included. HTRF ratio data were transformed into % activity of controls and analysed with a four parameter sigmoidal dose-response (variable slope) application. The concentration giving 50% inhibition (1050) was determined.

human aurora kinase A = target: T3, human aurora kinase A (Homo sapiens, UniProt O14965); test: Aurora kinase A inhibitory activity assay (Flashplate, 33P-ATP); assay type: biochemical; conditions: 10 μM ATP; read-out: Enzyme inhibition IC50 nM (Aurora kinase A)
T3 construct: recombinant, full length human aurora kinase A, N-terminally fused to GST; GST (N); purchased ProQuinase (so in the source); host or cells: baculovirus / Sf21 insect cells
T3 sequence (O14965 1-403): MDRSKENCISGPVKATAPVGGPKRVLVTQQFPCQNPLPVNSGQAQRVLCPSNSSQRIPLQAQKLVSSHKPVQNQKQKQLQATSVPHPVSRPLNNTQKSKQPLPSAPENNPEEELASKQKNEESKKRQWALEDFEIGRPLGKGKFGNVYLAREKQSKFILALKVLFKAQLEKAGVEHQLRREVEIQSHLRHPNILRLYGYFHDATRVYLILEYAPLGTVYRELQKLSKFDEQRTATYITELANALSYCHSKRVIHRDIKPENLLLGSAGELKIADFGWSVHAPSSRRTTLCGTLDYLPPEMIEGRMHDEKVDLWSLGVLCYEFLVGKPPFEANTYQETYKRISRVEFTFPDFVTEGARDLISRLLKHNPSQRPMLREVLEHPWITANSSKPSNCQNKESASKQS
Experimental: The ability of compounds to inhibit aurora kinase A activity was measured using a microplate assay. In brief, 96-well Flashplates® (PerkinElmer Life Sciences) were pre-coated with myelin basic protein (MBP). MBP (100 ul of […] in PBS) was incubated at 37° C. for 1 h, followed by overnight incubation at 4° C. Plates were then washed with PBS and allowed to air dry.
Wells lacking inhibitor were used as vehicle controls and wells containing no enzyme were used to measure the ‘background’ signal. Plates were incubated overnight at 30° C. After incubation the contents of the wells were removed and the plates washed three times with PBS containing 10 mM tetra sodium pyrophosphate prior to scintillation counting using a Wallac MicroBeta TriLux.
Dose response curves were generated from 10 concentrations (top final concentration 10 μM, with 3-fold dilutions), using triplicate wells.
[…] values were determined by non-linear regression analysis, after fitting the data point results to the equation for sigmoidal dose response with variable slope (% activity against log concentration of compound), using Xlf it software.

[4] = HCT-116, HCT116 non-monocytic cell line, read-out: Cell proliferation IC50 nM (HCT116)
[5] = U-937, U937 monocytic cell line, read-out: Cell proliferation IC50 nM (U937 cells)
[6] = U-937, read-out: Cell proliferation IC50 nM (U937 cells)
[7] = U937 cell proliferation IC50 / DHFR enzyme IC50
[8] = U937 cell proliferation IC50 / Aurora kinase A IC50

T1 sequence (Q16539 whole entry): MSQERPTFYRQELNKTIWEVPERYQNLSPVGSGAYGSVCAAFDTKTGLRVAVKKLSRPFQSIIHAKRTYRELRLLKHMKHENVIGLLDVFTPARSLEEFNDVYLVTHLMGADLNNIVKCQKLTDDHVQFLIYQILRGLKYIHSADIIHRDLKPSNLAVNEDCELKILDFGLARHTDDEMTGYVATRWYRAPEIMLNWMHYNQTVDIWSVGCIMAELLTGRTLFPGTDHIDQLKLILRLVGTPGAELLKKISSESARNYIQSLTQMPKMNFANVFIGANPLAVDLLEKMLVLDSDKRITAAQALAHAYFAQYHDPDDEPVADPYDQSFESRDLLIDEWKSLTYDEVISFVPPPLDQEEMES
T2 sequence (P48736 whole entry): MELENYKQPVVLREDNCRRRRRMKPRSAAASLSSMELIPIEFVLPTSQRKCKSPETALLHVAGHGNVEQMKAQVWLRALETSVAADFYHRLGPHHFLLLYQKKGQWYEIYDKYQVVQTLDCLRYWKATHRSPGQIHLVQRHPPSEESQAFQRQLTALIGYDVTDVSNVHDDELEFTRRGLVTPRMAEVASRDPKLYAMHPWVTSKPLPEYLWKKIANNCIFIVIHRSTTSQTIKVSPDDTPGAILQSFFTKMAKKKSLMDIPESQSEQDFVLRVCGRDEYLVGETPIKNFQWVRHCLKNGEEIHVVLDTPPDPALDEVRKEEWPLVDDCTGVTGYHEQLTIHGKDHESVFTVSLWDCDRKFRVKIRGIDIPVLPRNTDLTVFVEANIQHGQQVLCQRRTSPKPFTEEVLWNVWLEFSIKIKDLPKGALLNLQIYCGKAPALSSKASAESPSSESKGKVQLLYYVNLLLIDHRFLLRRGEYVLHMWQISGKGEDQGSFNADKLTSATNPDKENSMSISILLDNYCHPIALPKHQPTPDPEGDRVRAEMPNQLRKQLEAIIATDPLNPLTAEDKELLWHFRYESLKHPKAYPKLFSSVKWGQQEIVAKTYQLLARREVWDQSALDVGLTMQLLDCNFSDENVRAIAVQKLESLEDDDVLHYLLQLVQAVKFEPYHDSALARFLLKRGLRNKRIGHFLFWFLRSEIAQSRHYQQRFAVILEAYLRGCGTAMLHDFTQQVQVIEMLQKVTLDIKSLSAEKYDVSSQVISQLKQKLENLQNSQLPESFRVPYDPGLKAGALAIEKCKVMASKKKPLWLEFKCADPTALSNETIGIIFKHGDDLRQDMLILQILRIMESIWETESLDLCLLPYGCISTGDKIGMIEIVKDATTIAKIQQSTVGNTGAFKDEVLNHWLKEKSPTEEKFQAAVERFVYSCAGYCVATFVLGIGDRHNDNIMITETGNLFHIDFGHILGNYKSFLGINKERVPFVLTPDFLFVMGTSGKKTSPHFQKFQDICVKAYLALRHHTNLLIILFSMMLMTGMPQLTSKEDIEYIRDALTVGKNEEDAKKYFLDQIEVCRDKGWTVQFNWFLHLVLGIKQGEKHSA

SMILES: COc1cc2c(Oc3ccc(NC(=O)c4ccccc4)cc3)ccnc2cc1OCC[C@H](N)C(=O)O [Compound 13]
- IC50 (human aurora kinase A): 500 nM
- IC50 [2, 5]: > 5000 nM

SMILES: Nc1c(C(=O)c2ccc(F)cc2F)ccc(=O)n1-c1c(F)cc(OCC[C@H](N)C(=O)OC2CCCC2)cc1F [Compound 16, cyclopentyl (S)-2-Amino-4-(4-[6-amino-5-(2,4-difluorobenzoyl)-2-oxo-2H-pyridin-1-yl]-3,5-difluorophenoxy)butanoate trifluoroacetate]
- IC50 ([3]; Homo sapiens, 6 h, read-out: Inhibition of TNFα production in human whole blood IC50 nM): 20 nM
- Ratio IC50 WB/enzyme [3]: 0.8
- IC50 (p38 MAP kinase α): 25 nM

SMILES: COc1cc(NCc2cnc3nc(N)nc(N)c3c2C)cc(OC)c1OC [Compound 2 G = N, 5-Methyl-6-((3,4,5-trimethoxyphenylamino)methyl)pyrido[2,3-d]pyrimidine-2,4-diamine, reference compound]
- Ratio IC50 cell/enzyme [1]: 170
- IC50 ([1]; HCT-116, read-out: Cell proliferation IC50 nM (HCT116)): 1700 nM
- IC50 [2, 6]: 2200 nM
- Ratio IC50 cell/enzyme [2, 7]: 220
- selectivity between a monocytic and non-monocytic cell line (cell proliferation) ([2]; U937 versus HCT116): no selectivity

SMILES: Cc1c(CNc2ccc(C(=O)N[C@@H](CC(C)C)C(=O)OC3CCCC3)cc2)cnc2nc(N)nc(N)c12 [Compound 6, (S)-2-{4-[(2,4-Diamino-5-methyl-pyrido[2,3-d]pyrimidin-6-ylmethyl)-amino]-benzoylamino}-4-methyl-pentanoic acid cyclopentyl ester]
- fold more potent than the unmodified analogue (2 G=N) ([1]; HCT116): 15 fold
- Ratio IC50 cell/enzyme [1]: 0.04
- IC50 [1, 4]: 110 nM
- IC50 [2, 5]: 23 nM
- Ratio IC50 cell/enzyme [2, 7]: 0.013
- fold more potent than the unmodified analogue (2 G=N) ([2]; U937 cells): 100 fold

SMILES: COc1cc2nccc(Oc3ccc(NC(=O)c4ccccc4)cc3)c2cc1OC [Compound 11, N-{4-(7-methoxy-6-methoxy-quinoline-4-yloxy)-phenyl}-benzamide, reference compound]
- IC50 (human aurora kinase A): 350 nM
- IC50 [2, 5]: 430 nM
- Ratio IC50 cell/enzyme [2, 8]: 1.3

SMILES: Nc1c(C(=O)c2ccc(F)cc2F)ccc(=O)n1-c1c(F)cccc1F [Compound 15, 6-Amino-5-(2,4-difluoro-benzoyl)-1-(2,6-difluoro-phenyl)-1H-pyridin-2-one, reference compound]
- pIC50 ([3]; Homo sapiens, 6 h): 6.52
- Ratio IC50 WB/enzyme [3]: 6
- IC50 (p38 MAP kinase α): 50 nM

SMILES: COc1cc2c(Oc3ccc(NC(=O)c4ccccc4)cc3)ccnc2cc1OCC[C@H](N)C(=O)OC1CCCC1 [Compound 12, (S)-2-amino-4-[4-(4-benzoylamino-phenoxy)-6-methoxy-quinolin-7-yloxy]-butyric acid cyclopentyl ester]
- IC50 (human aurora kinase A): 2300 nM
- IC50 [2, 5]: 3.5 nM
- Ratio IC50 cell/enzyme [2, 8]: 0.0015

SMILES: O=C(CCCCCCC(=O)Nc1ccccc1)NO [Compound 7, Suberoylanilide hydroxamic acid, reference compound]
- IC50 [2, 6]: 400 nM

SMILES: COc1cc2c(Oc3ccc(NC(=O)c4ccccc4)cc3)ccnc2cc1OCC[C@H](N)C(=O)OC(C)(C)C [Compound 14, (S)-2-Amino-4-[4-(4-benzoylamino-phenoxy)-6-methoxy-quinolin-7-yloxy]-butyric acid tert-butyl ester]
- IC50 (human aurora kinase A): 3000 nM
- IC50 [2, 5]: 75 nM
- fold less active in the cell assay than cyclopentyl ester (Compound 12) ([2]; U937 cell proliferation): ~20 fold
- Ratio IC50 cell/enzyme [2, 8]: 0.025

SMILES: Cc1c(CNc2ccc(OCC[C@H](N)C(=O)OC3CCCC3)cc2)cnc2nc(N)nc(N)c12 [Compound 3, (S)-2-Amino-4-{4-[(2,4-diamino-5-methyl-pyrido[2,3-d]pyrimidin-6-ylmethyl)-amino]-phenoxy}-butyric acid cyclopentyl ester]
- Ratio IC50 cell/enzyme [1]: 1.4
- IC50 [1, 4]: 7300 nM
- IC50 [2, 5]: 5100 nM
- Ratio IC50 cell/enzyme [2, 7]: 1.9

Second part, led by results:

- IC50 [1, 4]: 6100 nM
- IC50 [2, 5]: 1900 nM
SMILES: COc1cc2c(Oc3ccc(NC(=O)c4ccccc4)cc3)ccnc2cc1OCC[C@H](NC1CCCCC1)C(=O)OC1CCCC1 [Compound 25, (S)-4-[4-(4-Benzoylamino-phenoxy)-6-methoxy-quinolin-7-yloxy]-2-cyclohexylamino-butyric acid cyclopentyl ester]

- pIC50 ([3]; Homo sapiens, 6 h): 6.12
- IC50 (p38 MAP kinase α): 40 nM
SMILES: CC(C)(C)OC(=O)[C@@H](N)CCOc1cc(F)c(-n2c(N)c(C(=O)c3ccc(F)cc3F)ccc2=O)c(F)c1 [Compound 18, (S)-2-Amino-4-{4-[6-amino-5-(2,4-difluoro-benzoyl)-2-oxo-2H-pyridin-1-yl]-3,5-difluoro-phenoxy}-butyric acid tert-butyl ester]
- Ratio IC50 WB/enzyme [3]: 18

- IC50 (p38 MAP kinase α): 30 nM
SMILES: Nc1c(C(=O)c2ccc(F)cc2F)ccc(=O)n1-c1c(F)cc(OCC[C@H](N)C(=O)O)cc1F [Compound 17, (S)-2-Amino-4-(4-[6-amino-5-(2,4-difluorobenzoyl)-2-oxo-2H-pyridin-1-yl]-3,5-difluorophenoxy)butanoic acid]

- IC50 (PI 3-kinase γ): 3600 nM
SMILES: Cc1nc(NC(=O)CC[C@H](N)C(=O)O)sc1-c1ccc(Cl)c(S(C)(=O)=O)c1 [Compound 22, (S)-2-Amino-4-[5-(4-chloro-3-methanesulfonyl-phenyl)-4-methyl-thiazol-2-ylcarbamoyl]-butyric acid]
